Measurements: article PMC6443876, “Molecular structure of a 5,10‐methylenetetrahydrofolate dehydrogenase from the silkworm Bombyx mori” (FEBS Open Bio, 2019)

Experiments:
bmMTHFD [1] = molecular target: T1, bmMTHFD (Bombyx mori, UniProt H9IYM1, S46A); experiment: endpoint absorbance at […] nm, Michaelis-Menten fit; assay type: biochemical; settings: dehydrogenase activity, 20 mM sodium phosphate pH 6.5, 30 mM 2-mercaptoethanol, 28 °C
T1 construct: gene method; full-length ORF (906 bp, 301 residues, 32 733 Da), pET-15b (NdeI/BamHI); homodimer ~63 kDa; cDNA from larval fat body

bmMTHFD [2] = molecular target: T2, bmMTHFD (Bombyx mori, UniProt H9IYM1); experiment: endpoint absorbance at […] nm, Michaelis-Menten fit; assay type: biochemical; settings: dehydrogenase activity, 20 mM sodium phosphate pH 6.5, 30 mM 2-mercaptoethanol, 28 °C
T2 construct: gene method; full-length ORF (906 bp, 301 residues, 32 733 Da), pET-15b (NdeI/BamHI); homodimer ~63 kDa; cDNA from larval fat body
T2 sequence (H9IYM1 1-301): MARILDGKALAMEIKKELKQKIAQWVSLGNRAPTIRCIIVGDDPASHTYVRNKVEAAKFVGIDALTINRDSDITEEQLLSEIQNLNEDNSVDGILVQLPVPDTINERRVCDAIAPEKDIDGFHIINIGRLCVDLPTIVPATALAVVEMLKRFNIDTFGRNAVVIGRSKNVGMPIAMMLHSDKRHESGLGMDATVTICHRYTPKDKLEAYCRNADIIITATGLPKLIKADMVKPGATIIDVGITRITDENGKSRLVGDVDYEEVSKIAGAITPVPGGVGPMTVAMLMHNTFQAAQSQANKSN

bmMTHFD [3] = molecular target: T3, bmMTHFD (Bombyx mori, UniProt H9IYM1, D120A); experiment: endpoint absorbance at […] nm, Michaelis-Menten fit; assay type: biochemical; settings: dehydrogenase activity; MTHF as co-substrate; 20 mM sodium phosphate pH 6.5, 30 mM 2-mercaptoethanol, 28 °C
T3 construct: gene method; full-length ORF (906 bp, 301 residues, 32 733 Da), pET-15b (NdeI/BamHI); homodimer ~63 kDa; cDNA from larval fat body

bmMTHFD [4] = molecular target: T4, bmMTHFD (Bombyx mori, UniProt H9IYM1, K53A); experiment: endpoint absorbance at […] nm, Michaelis-Menten fit; assay type: biochemical; settings: dehydrogenase activity, 20 mM sodium phosphate pH 6.5, 30 mM 2-mercaptoethanol, 28 °C
T4 construct: gene method; full-length ORF (906 bp, 301 residues, 32 733 Da), pET-15b (NdeI/BamHI); homodimer ~63 kDa; cDNA from larval fat body

bmMTHFD [5] = molecular target: T3, bmMTHFD; experiment: decrease in absorption at […] nm, Michaelis-Menten fit; assay type: biochemical; settings: cyclohydrolase activity; 0.1 M potassium maleate pH 7.4, 0.02 M 2-mercaptoethanol, 30 °C
bmMTHFD [6] = molecular target: T2, bmMTHFD; experiment: as above; assay type: biochemical; settings: cyclohydrolase activity; 0.1 M potassium maleate pH 7.4, 0.02 M 2-mercaptoethanol, 30 °C
bmMTHFD [7] = molecular target: T4, bmMTHFD; experiment: as above; assay type: biochemical; settings: cyclohydrolase activity; 0.1 M potassium maleate pH 7.4, 0.02 M 2-mercaptoethanol, 30 °C
bmMTHFD [8] = molecular target: T5, bmMTHFD (Bombyx mori, UniProt H9IYM1, Q97A); experiment: as above; assay type: biochemical; settings: cyclohydrolase activity; 0.1 M potassium maleate pH 7.4, 0.02 M 2-mercaptoethanol, 30 °C
T5 construct: gene method; full-length ORF (906 bp, 301 residues, 32 733 Da), pET-15b (NdeI/BamHI); homodimer ~63 kDa; cDNA from larval fat body

bmMTHFD [9] = molecular target: T5, bmMTHFD; experiment: endpoint absorbance at […] nm, Michaelis-Menten fit; assay type: biochemical; settings: dehydrogenase activity; NADP+ as cofactor; 20 mM sodium phosphate pH 6.5, 30 mM 2-mercaptoethanol, 28 °C
[10] = molecular target: Bombyx mori 5,10-methylenetetrahydrofolate dehydrogenase (Bombyx mori); experiment: SEC; Superdex 200 analytical gel filtration, calibrated with protein standards (thyroglobulin, globulin, ovalbumin, myoglobin); bmMTHFD eluted at 205 mL, corresponding to 63 kDa

T3 sequence (H9IYM1 entry or part of it D120A): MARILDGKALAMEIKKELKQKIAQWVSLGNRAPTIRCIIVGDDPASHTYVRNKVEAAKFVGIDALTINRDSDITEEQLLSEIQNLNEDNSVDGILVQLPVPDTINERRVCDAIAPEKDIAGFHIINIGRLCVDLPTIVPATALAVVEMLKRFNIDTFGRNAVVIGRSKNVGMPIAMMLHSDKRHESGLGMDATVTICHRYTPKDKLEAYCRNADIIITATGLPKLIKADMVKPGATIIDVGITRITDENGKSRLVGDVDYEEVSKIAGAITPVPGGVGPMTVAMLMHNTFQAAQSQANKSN
T4 sequence (H9IYM1 entry or part of it K53A): as the sequence (H9IYM1 entry or part of it D120A) above, with K53A, A120D counted along it
T5 sequence (H9IYM1 entry or part of it Q97A): as the sequence (H9IYM1 entry or part of it D120A) above, with Q97A, A120D counted along it
T1 sequence (H9IYM1 entry or part of it S46A): as the sequence (H9IYM1 entry or part of it D120A) above, with S46A, A120D counted along it

NC(=O)c1ccc[n+]([C@@H]2O[C@H](COP(=O)(O)OP(=O)(O)OC[C@H]3O[C@@H](n4cnc5c(N)ncnc54)[C@H](OP(=O)(O)O)[C@@H]3O)[C@@H](O)[C@H]2O)c1 [NADP^+]
S46A (bmMTHFD [1]; MTHF as co-substrate): 0.98 (± 1.3 × 10^−1) mM
WT (bmMTHFD [2]; MTHF as co-substrate): 0.22 (± 1.0 × 10^−2) mM
D120A (bmMTHFD [3]): 2.0 (± 1.4 × 10^−1) mM
K53A (bmMTHFD [4]; MTHF as co-substrate): 0.62 (± 6.5 × 10^−2) mM

Nc1nc2c(c(=O)[nH]1)[N+]1=CN(c3ccc(C(=O)N[C@@H](CCC(=O)O)C(=O)O)cc3)C[C@H]1CN2 [5,10-methenyl-THF]
D120A (bmMTHFD [5]): 0.23 (± 2.5 × 10^−2) mM
WT (bmMTHFD [6]): 0.13 (± 6.0 × 10^−3) mM
K53A (bmMTHFD [7]): 0.16 (± 1.5 × 10^−2) mM
Q97A (bmMTHFD [8]): 0.019 (± 2.5 × 10^−3) mM

NC(=O)c1ccc[n+]([C@@H]2O[C@H](COP(=O)(O)OP(=O)(O)OC[C@H]3O[C@@H](n4cnc5c(N)ncnc54)[C@H](O)[C@@H]3O)[C@@H](O)[C@H]2O)c1 [NAD^+]
WT (bmMTHFD [2]; MTHF as co-substrate): 0.27 (± 2.0 × 10^−2) mM
D120A (bmMTHFD [3]): 2.0 (± 9.0 × 10^−2) mM

Nc1nc2c(c(=O)[nH]1)N1CN(c3ccc(C(=O)N[C@@H](CCC(=O)O)C(=O)O)cc3)C[C@H]1CN2 [MTHF]
Q97A (bmMTHFD [9]): 0.81 (± 2.8 × 10^−2) mM
S46A (bmMTHFD [1]; NADP+ as cofactor): 0.19 (± 4.8 × 10^−3) mM
WT (bmMTHFD [2]; NADP+ as cofactor): 0.51 (± 3.3 × 10^−2) mM
K53A (bmMTHFD [4]; NADP+ as cofactor): 1.1 (± 1.8 × 10^−2) mM

Bombyx mori 5,10-methylenetetrahydrofolate dehydrogenase (enzyme)
stoichiometry N [10]: 2
